{"source": "patent EP4424327A1", "about": "“METHOD OR AGENT WITH HDAC REGULATOR, FOR TREATMENT OF DIABETES AND COMPLICATIONS” (Biozipcode, Inc., priority 2021, dated 2023)", "key": {"[1]": {"test_system": "STZ-DM mice", "test": "Effect of thymectomy on treatment of STZ-DM mice (Example 8)", "format": "in vivo, C57BL/6 J mice", "protocol": "Streptozotocin (150 mg/kg) was tail vein-administered to C57BL/6 J mice (wild type, CLEA Japan, Inc., Osaka) to develop diabetes mellitus. After one month of free feeding, an insulin pellet was subcutaneously administered to these STZ-DM mice to normalize their blood glucose levels. The mice were divided into two groups, for one group of mice, the thymus was removed from the suprasternal fossa (thymectomy group), and for the other group of mice, an incision was made in the suprasternal fossa and closed immediately (control group). Givinostat (Cayman chemical, USA) was orally administered at 2.5 mg/kg to both the thymectomy group and the control group. Givinostat was administered once every three days.\nBlood glucose levels of mice in both groups were measured weekly (FIG. 24). After the end of 8 weeks of treatment, perfusion fixation was performed on both groups of mice to confirm the presence or absence of thymus (FIG. 25)."}, "[2]": {"test_system": "NOD mice", "test": "Treatment of diabetes mellitus in NOD mice with HDAC regulator and blood glucose control (Example 4)", "format": "in vivo", "conditions": "givinostat 2.5 mg/kg orally daily + insulin glargine s.c. daily (tapered from 10 IU), 8-12 weeks", "protocol": "(§1) The treatment was started for NOD mice one week after confirmation of the onset of hyperglycemia. […] 2 hours after administration of insulin glargine, 2.5 mg/kg of givinostat was orally administered daily to a mouse whose blood glucose level was measured and blood glucose lowering was confirmed. When the blood glucose level before administration of insulin glargine was lower than 200 mg/dl at longer than 8 weeks after the start of treatment, the administration of insulin glargine and givinostat on that day was discontinued. When the blood glucose level on the next day was also below 200 mg/dl, insulin glargine and givinostat were stopped, and then, the blood glucose level was measured weekly until week 4 to determine the diabetic state. […] When hypoglycemia appeared, blood glucose levels were measured 1 hour after intraperitoneal (300 µL) administration of 25% glucose solution, and this operation was repeated when hypoglycemia was still persistent. […] When hypoglycemia was confirmed, the subsequent insulin was adjusted to 1/2 of the previous dose as necessary."}, "[3]": {"test_system": "STZ-DM mice", "test": "TNF-α immunostaining (DAB staining) of bone marrow, thymus and pancreatic islets (Example 3)", "format": "in vivo, C57BL/6 J mice", "protocol": "In addition, mice in each experimental group were subjected to perfusion fixation, and then dissected to collect the femur, thymus, and pancreas. In the femur, bone tissue was demineralized using a neutral demineralizing solution (10% EDTA solution) to prepare a paraffin block. A paraffin section having a thickness of 3 µm was prepared from the paraffin block using a microtome, and was stained with DAB. As pretreatment for DAB staining, the paraffin section was deparaffinized with xylene and hydrophilized with ethanol, and the antigen was activated using HistoVT one (Nacalai Tesque). Thereafter, DAB staining was performed using TNF-α (abcam)."}, "[4]": {"test_system": "STZ-DM mice", "test": "Intraperitoneal glucose tolerance test (IPGTT) 12 weeks after start of treatment (Example 3)", "format": "in vivo, C57BL/6 J mice", "conditions": "insulin pellet + givinostat compared with blank pellet + givinostat, 1.5 g/kg glucose i.p.", "protocol": "(§2) Blood glucose levels were measured weekly for 12 weeks. In addition, an intraperitoneal glucose tolerance test (IPGTT) was performed on some mice 12 weeks after the start of treatment. After 16 hours of fasting, blood glucose level measurement and blood collection were performed at 0 minutes, 100 µl of a 1.5 g/kg glucose solution was intraperitoneally administered, and blood glucose level measurement and blood collection were performed at 30 minutes, 60 minutes, and 120 minutes, respectively. Serum was collected from the collected blood, and the serum insulin concentration was measured using an ultra-sensitive mouse insulin measurement kit (Morinaga Institute of Biological Science, Inc., Japan). FIG. 15 illustrates the transition of blood glucose, and FIG. 16 illustrates the transition of insulin concentration."}, "[5]": {"test_system": "STZ-DM mice", "test": "Drug treatment of STZ-DM mice (Example 3): weekly blood glucose levels", "format": "in vivo, C57BL/6 J mice", "protocol": "An overview of the procedure is illustrated in FIG. 13. Streptozotocin (150 mg/kg) was tail vein-administered to C57BL/6 J mice (wild type, CLEA Japan, Inc., Osaka) (nonDM) to develop diabetes mellitus. For the STZ-DM mouse, the blood glucose level was normalized by insulin pellet administration, and the blank pellet was administered to a control group. In both the treatment group and the control group, 2.5 mg/kg of givinostat (Cayman chemical, USA) was administered to the tail vein or orally. The insulin pellet or the blank pellet was administered up to 3 days before the start of the givinostat treatment, and the administration of givinostat was started on the day on which it was confirmed that the blood glucose level of the treatment group fell within the normal range on day 0. Note that givinostat was administered once every three days until week 8. In addition, a non-diabetic group (nonDM) in which only a buffer was administered without administering STZ simultaneously with the treatment group, and a non-treated diabetic group (STZ-DM) in which neither blood glucose control nor treatment with givinostat was performed were also observed simultaneously.\nas §2"}, "[6]": {"test_system": "db/db mice", "test": "Treatment of db/db mice with HDAC regulator and insulin glargine (Example 5)", "format": "in vivo", "conditions": "givinostat 2.5 mg/kg orally daily + insulin glargine s.c. daily (tapered from 10 IU), 8-12 weeks", "protocol": "as §1, with “Db/db mice were observed from week 6, and the time point at which the blood glucose level exceeded 300 mg/dl” for “The treatment”, “defined as” for “started for NOD mice one week after confirmation of”, “diabetes mellitus.” for “hyperglycemia.”"}, "[7]": {"test_system": "db/db mice", "test": "Treatment of db/db mice with HDAC regulator and dapagliflozin (Example 6)", "format": "in vivo", "conditions": "givinostat 2.5 mg/kg + dapagliflozin 1.0 mg/kg orally daily for 8 weeks, then 4 weeks off treatment", "protocol": "Db/db mice were observed from week 6, and the time point at which the blood glucose level exceeded 300 mg/dl was defined as the onset of diabetes mellitus. In db/db mice with leptin receptor deficiency, 1.0 mg/kg of dapagliflozin, an SGLT inhibitor, and 2.5 mg/kg of givinostat, an HDAC regulator, were orally administered daily for 8 weeks, after which the treatment was discontinued for 4 weeks and terminated."}, "[8]": {"test_system": "STZ-DM mice", "test": "Weight of the collected thymus (Example 3)", "format": "in vivo, C57BL/6 J mice", "conditions": "givinostat simultaneously with blood glucose control, both oral and intravenous; non-diabetic 37 mg, diabetic 13 mg"}, "[9]": {"test_system": "STZ-DM mice", "test": "Insulin and glucagon DAB staining of frozen pancreas sections (Example 3)", "format": "in vivo, C57BL/6 J mice", "conditions": "givinostat administered simultaneously with blood glucose control (insulin pellet)", "protocol": "12 weeks after the start of treatment, some mice were subjected to perfusion fixation with a 4% PFA solution in 0.1 M PB and harvested pancreatic tissue was immersed overnight in a 15% sucrose solution in 0.1 M PB, and then, 8 um frozen sections were prepared with a cryostat. The frozen sections were washed 3 times with PBS (-) for 10 minutes, reacted in a 0.3% hydrogen peroxide solution (0.3% H2O2 in PBS (-)) for 30 minutes at room temperature to inactivate endogenous peroxidase in the sections, and then washed 3 times for 5 minutes with PBS (-). Thereafter, in order to prevent non-specific reactions, the sections were reacted with 5% normal goat serum in PBS (-) supplemented with 0.3% Triton X and blocked at room temperature for 1 hour. After blocking, the sections were reacted with a primary antibody (anti-insulin antibody: CST Inc. or anti-glucagon antibody: CST Inc.) at 4°C overnight. Thereafter, the sections was washed 3 times with PBS (-) for 5 minutes, reacted in ImmPRESS reagent (Vector laboratory) at room temperature for 30 minutes, and further washed. […] The prepared sections were observed under a microscope, about 5 to 8 pancreatic islets were randomly selected, and the percentage of insulin or glucagon positive cells relative to the size of the pancreatic islets was calculated using Image J software."}, "[10]": {"conditions": "givinostat simultaneously with blood glucose control (insulin pellet)"}}}
{"smiles": "CCN(CC)Cc1ccc2cc(COC(=O)Nc3ccc(C(=O)NO)cc3)ccc2c1", "note": "[givinostat]", "values": [{"measurement": "blood glucose levels", "setting": "[1]; control group without thymectomy, insulin pellet + givinostat 2.5 mg/kg orally once every three days, 8 weeks", "result": "no increase in blood glucose levels was observed"}, {"measurement": "thymus atrophied by diabetes mellitus", "setting": "[1]; control group without thymectomy, insulin pellet + givinostat, week 8", "result": "recovered to a normal level"}, {"measurement": "blood glucose level at the end of treatment", "setting": "[1]; thymectomy group, insulin pellet + givinostat 2.5 mg/kg orally once every three days, 8 weeks", "result": "about 400 mg/dL"}, {"measurement": "thymus", "setting": "[1]; thymectomy group, insulin pellet + givinostat, week 8", "result": "the thymus did not recover even when the treatment was performed"}, {"measurement": "diabetes mellitus outcome", "setting": "[2]", "result": "cured"}, {"measurement": "TNF-α positive cells in pancreatic islets", "setting": "[3]; blank pellet + givinostat treatment (oral) and (intravenous)", "result": "a large amount of TNF-α positive cells migrated to the center of the pancreatic islets"}, {"measurement": "TNF-α positive cells in bone marrow", "setting": "[3]; [10]", "result": "TNF-α positive cells decreased to the same extent as the non-diabetic group"}, {"measurement": "TNF-α positive cells in thymus", "setting": "[3]; [10]", "result": "TNF-α positive cells decreased to the same extent as the non-diabetic group"}, {"measurement": "TNF-α positive cells in pancreatic islets", "setting": "[3]; insulin pellet + givinostat treatment (oral) and (intravenous)", "result": "almost no TNF-α positive cells were observed"}, {"measurement": "blood glucose levels after IPGTT", "setting": "[4]", "result": "early normalization of blood glucose levels"}, {"measurement": "insulin in blood after IPGTT", "setting": "[4]", "result": "high blood insulin elevation"}, {"measurement": "blood glucose level", "setting": "[5]; givinostat 2.5 mg/kg for 8 weeks without insulin pellet (blank pellet)", "result": "the blood glucose level did not decrease even when givinostat was administered for 8 weeks"}, {"measurement": "blood glucose levels", "setting": "[5]; insulin pellet + givinostat 2.5 mg/kg (oral or intravenous, once every three days for 8 weeks), start of treatment", "result": "immediately decreased"}, {"measurement": "blood glucose level", "setting": "[5]; insulin pellet + givinostat (both orally and intravenously), after discontinuing givinostat after week 9, up to week 12", "result": "the reduction in blood glucose level continued even after discontinuing givinostat after week 9"}, {"measurement": "diabetes mellitus outcome", "setting": "[6]", "result": "cured"}, {"measurement": "diabetes mellitus outcome", "setting": "[7]", "result": "cured"}, {"measurement": "thymus weight, relative to normal", "setting": "[8]", "result": "about 2/3"}, {"measurement": "area of glucagon positive cells, of the entire pancreatic islets", "setting": "[9]; nonDM about 10%, STZ-DM 75%", "result": "about 40%"}, {"measurement": "area of insulin positive cells, relative to nonDM", "setting": "[9]; pancreatic islets, 12 weeks", "result": "about 1/2"}]}
